Where a name gives a salt, the structure may show the parent alone.
Biological target: T1, CCK Receptor (Pancreas) (Rattus norvegicus, UniProt P30551)
T1 construct: The whole pancreas was dissected free of fat tissue and was homogenized; from tissue; host or cells: rat pancreas membrane homogenate
T1 sequence (P30551 1-444): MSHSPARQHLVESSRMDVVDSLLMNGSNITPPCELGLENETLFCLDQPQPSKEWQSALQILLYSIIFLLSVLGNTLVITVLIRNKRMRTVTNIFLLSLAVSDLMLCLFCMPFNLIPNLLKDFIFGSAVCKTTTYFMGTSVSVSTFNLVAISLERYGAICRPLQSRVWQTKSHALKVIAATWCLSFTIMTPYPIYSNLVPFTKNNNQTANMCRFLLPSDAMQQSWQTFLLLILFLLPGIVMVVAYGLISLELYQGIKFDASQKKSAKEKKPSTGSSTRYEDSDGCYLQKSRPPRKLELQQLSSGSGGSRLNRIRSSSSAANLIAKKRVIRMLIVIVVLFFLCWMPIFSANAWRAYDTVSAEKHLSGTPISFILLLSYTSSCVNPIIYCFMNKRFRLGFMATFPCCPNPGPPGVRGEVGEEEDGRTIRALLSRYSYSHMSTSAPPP
Test: CCK Receptor Binding (Pancreas), inhibition of specific 125I-CCK-8 binding
Set-up: species or system Sprague-Dawley rats
Settings: rat whole pancreas membranes; 50 pM 125I-CCK-8; 25°C for 2 hours
Protocol: CCK-8 sulphated was radiolabelled with ¹²⁵I-Bolton Hunter reagent (2000 Ci/mmole). Receptor binding was performed according to Chang and Lotti (Proc. Natl. Acad. Sci. 83, 4923-4926, 1986) with minor modifications.
Male Sprague-Dawley rats (150-200g) were sacrificed by decapitation. The whole pancreas was dissected free of fat tissue and was homogenized in 25 volumes of ice-cold 10 mM N-2-hydroxyethyl-piperazine-N′-2-ethane sulphonic acid (HEPES) buffer with 0.1% soya bean trypsin inhibitor (pH 7.4 at 25°C) with a Kinematica Polytron. The homogenates were centrifuged at 47,800 g for 10 min. Pellets were resuspended in 10 volumes of binding assay buffer (20mM (HEPES)), 1mM ethylene glycol-bis-(β-aminoethylether-N,N′-tetraacetic acid) (EGTA), 5mM MgCl₂, 150 mM NaCl, bacitracin 0.25 mg/ml, soya bean trypsin inhibitor 0.1 mg/ml, and bovine serum albumin 2 mg/ml pH 6.5 at 25°C) using a Teflon (trademark) homogenizer, 15 strokes at 500 rpm. The homogenate was further diluted in binding assay buffer to give a final concentration of 0.5 mg original wet weight/1 ml buffer. […] All assays were run in duplicate. The reaction mixtures were incubated at 25°C for 2 hours and the reaction terminated by rapid filtration (Brandell 24 well cell harvester) over Whatman GF/C filters, washing 3 x 4 mls with ice-cold 100 Mm NaCl. The radioactivity on the filters was counted with a LKB gamma counter.
Drug displacement studies were performed with at least 10 concentrations of compounds of Formula I and the IC₅₀ values were determined by regression analysis IC₅₀ refers to the concentration of the compound required to inhibit 50% of specific binding of ¹²⁵I-CCK-8.

SMILES | IC50
CCCN1C(=O)C(NC(=O)Nc2cccc(N(C)C)c2)N=C(N2CCN(C)CC2)c2ccccc21 (single isomer, unassigned; (-)) [Example 41, (-)-N-[2,3-Dihydro-5-(4-methylpiperazin-1-yl)-2-oxo-1-propyl-1H-1,4-benzodiazepin-3-yl]-N′-[3-(dimethylamino)phenyl] urea] | > 3000 nM
CCCN1C(=O)C(NC(=O)Nc2cccc(C)c2)N=C(N2CCSCC2)c2ccccc21 (single isomer, unassigned; (-)) [Example 69, (-)-N-[2,3-Dihydro-2-oxo-1-propyl-5-(thiomorpholin-4-yl)-1H-1,4-benzodiazepin-3-yl]-N′-[3-methylphenyl] urea hydrochloride] | 515 nM
Cc1cccc(NC(=O)NC2N=C(N3CCSCC3)c3ccccc3N(C)C2=O)c1 (racemic) [Example 65, N-[3(R,S)-2,3-Dihydro-1-methyl-2-oxo-5-(thiomorpholin-4-yl)-1H-1,4-benzodiazepin-3-yl]-N′-[3-methylphenyl] urea] | 17.2 nM
CCc1cccc(NC(=O)NC2N=C(N3CCCCCC3)c3ccccc3N(C)C2=O)c1 (single isomer, unassigned; (-)) [Example 67, (-)-N-[2,3-Dihydro-5-(homopiperidin-1-yl)-1-methyl-2-oxo-1H-1,4-benzodiazepin-3-yl]-N′-[3-ethylphenyl] urea hydrochloride] | 310 nM
Cc1ccc(NC(=O)NC2N=C(N3CCN(C)CC3)c3ccccc3N(C)C2=O)cc1 (racemic) [Example 6, N-[3(R,S)-2,3-Dihydro-1-methyl-5-(4-methylpiperazin-1-yl-2-oxo-1H-1,4-benzodiazepin-3-yl] N′-[4-methylphenyl]urea] | > 3000 nM
Cc1cccc(NC(=O)NC2N=C(N3CCOCC3)c3ccccc3N(C)C2=O)c1 (racemic) [Example 3, N-[3(R,S)-2,3-Dihydro-1-methyl-5-(morpholin-4-yl)-2-oxo-1H-1,4-benzodiazepin-3-yl] N′-[3-methylphenyl] urea] | 505 nM
CCCN1C(=O)C(NC(=O)Nc2ccc3c(c2)CCC3)N=C(N2CCN(C)CC2)c2ccccc21 (single isomer, unassigned; (-)) [Example 34, (-)-N-[2,3-Dihydro-5-(4-methylpiperazin-1-yl)-2-oxo-1-propyl-1H-1,4-benzodiazepin-3-yl]-N′-[5-indanyl] urea] | > 3000 nM
CN1C(=O)C(NC(=O)Nc2ccccc2)N=C(N2CCCCCC2)c2ccccc21 (racemic) [Example 66, N-[3(R,S)-2,3-Dihydro-5-(homopiperidin-1-yl)-1-methyl-2-oxo-1H-1,4-benzodiazepin-3-yl]-N′-phenyl urea] | 14.2 nM
CN1C(=O)C(NC(=O)Nc2ccc(C(C)(C)C)cc2)N=C(N2CCCCCC2)c2ccccc21 (racemic) [Example 50, N-[3(R,S)-2,3-Dihydro-5-(homopiperidin-1-yl)-1-methyl-2-oxo-1H-1,4-benzodiazepin-3-yl]-N′-[4-t-butylphenyl] urea] | 815 nM
Cc1cccc(NC(=O)NC2N=C(N3CCCC3)c3ccccc3N(C)C2=O)c1 (racemic) [Example 2, N-[3(R,S)-2.3-Dihydro-1-methyl-2-oxo-5-(pyrrolidin-1-yl)-1H-1,4-benzodiazepin-3-yl] N′-[3-methylphenyl] urea] | 612 nM
CN(C)c1cccc(NC(=O)NC2N=C(N3CCCCCC3)c3ccccc3N(C)C2=O)c1 (racemic) [Example 49, N-[3(R,S)-2,3-Dihydro-5-(homopiperidin-1-yl)-1-methyl-2-oxo-1H-1,4-benzodiazepin-3-yl]-N′-[3-(dimethylamino)phenyl] urea] | 57.2 nM
Cc1cccc(NC(=O)NC2N=C(N3CCCCCC3)c3ccccc3N(C)C2=O)c1 (racemic) [Example 20, N-[3(R,S)-2,3-Dihydro-5-(homopiperidin-1-yl)-1-methyl-2-oxo-1H-1,4-benzodiazepin-3-yl]-N′-[3-methylphenyl] urea] | 10 nM
CCc1cccc(NC(=O)NC2N=C(N3CCCCCC3)c3ccccc3N(C)C2=O)c1 (single isomer, unassigned; (+)) [Example 68, (+)-N-[2,3-Dihydro-5-(homopiperidin-1-yl)-1-methyl-2-oxo-1H-1,4-benzodiazepin-3-yl]-N′-[3-ethylphenyl] urea hydrochloride] | 3.48 nM
CN1CCN(C2=NC(NC(=O)Nc3cccc(-c4nnn(C)n4)c3)C(=O)N(C)c3ccccc32)CC1 (racemic) [Example 13, N-[3(R,S)-2,3-Dihydro-1-methyl-2-oxo-5-(4-methylpiperazin-1-yl)-1H-1,4-benzodiazepin-3-yl]-N′-[3-(2-methyltetrazol-5-yl)phenyl] urea] | > 3000 nM

The next lines start with the values.

IC50 | SMILES
36.1 nM | Cc1cccc(NC(=O)NC2N=C(N3CCCCCCCC3)c3ccccc3N(C)C2=O)c1 (racemic) [Example 61, N-[3(R,S)-2,3-Dihydro-1-methyl-5-(octamethyleneimin-1-yl)-2-oxo-1H-1,4-benzodiazepin-3-yl]-N#MIN#-[3-methylphenyl] urea]
> 3000 nM | CCCN1C(=O)C(NC(=O)Nc2cccc(NC(C)=O)c2)N=C(N2CCN(C)CC2)c2ccccc21 (racemic) [Example 39, N-[3(R,S)-2,3-Dihydro-5-(4-methylpiperazin-1-yl)-2-oxo-1-propyl-1H-1,4-benzodiazepin-3-yl]-N#MIN#-[3-(acetylamino)phenyl] urea]
> 3000 nM | CCCN1C(=O)C(NC(=O)Nc2cccc(NC(=O)NC)c2)N=C(N2CCN(C)CC2)c2ccccc21 (single isomer, unassigned; (+)) [Example 40, (+)-N-[2,3-Dihydro-5-(4-methylpiperazin-1-yl)-2-oxo-1-propyl-1H-1,4-benzodiazepin-3-yl]-N′-[3-(methylaminocarbonylamino)phenyl] urea]
2300 nM | CN1CCN(C2=NC(NC(=O)Nc3cccc(O)c3)C(=O)N(C)c3ccccc32)CC1 (racemic) [Example 11, N-[3(R,S)-2,3-Dihydro-1-methyl-5-(4-methylpiperazin-1-yl)-2-oxo-1H-1,4-benzodiazepin-3-yl]-N#MIN#-[3-hydroxyphenyl] urea]
8.92 nM | CN1C(=O)C(NC(=O)Nc2ccc3c(c2)CCC3)N=C(N2CCCCCC2)c2ccccc21 (single isomer, unassigned; (+)) [Example 59, (+)-N-(2,3-Dihydro-5-(homopiperidin-1-yl)-1-methyl-2-oxo-1H-1,4-benzodiazepin-3-yl]-N′-[5-indanyl] urea hydrochloride]
> 3000 nM | CCCN1C(=O)C(NC(=O)Nc2cccc(C)c2)N=C(N2CCN(C)CC2)c2ccccc21 (single isomer, unassigned; (-)) [Example 24, (-)-N-(2,3-Dihydro-5-(4-methylpiperazin-1-yl)-2-oxo-1-propyl-1H-1,4-benzodiazepin-3-yl]-N′-[3-methylphenyl] urea]
2700 nM | CN1CCN(C2=NC(NC(=O)Nc3cccc(C(F)(F)F)c3)C(=O)N(C)c3ccccc32)CC1 (racemic) [Example 30, N-[3(R,S)-2,3-Dihydro-1-methyl-2-oxo-5-(4-methylpiperazin-1-yl)-1H-1,4-benzodiazepin-3-yl]-N′-[3-trifluoromethylphenyl] urea]
4120 nM | Cc1cccc(NC(=O)NC2N=C(N3CCN(C)CC3)c3ccccc3N(C)C2=O)c1 (racemic) [Example 4, N-[3(R,S)-2,3-Dihydro-1-methyl-5-(4-methylpiperazin-1-yl-2-oxo-1H-1,4-benzodiazepin-3-yl] N′-[3-methylphenyl]urea]
21.4 nM | CN1C(=O)C(NC(=O)Nc2cccc(-c3cc(=O)c(O)co3)c2)N=C(N2CCCCCC2)c2ccccc21 (racemic) [Example 62, N-[3(R,S)-2,3-Dihydro-5-(homopiperidin-1-yl)-1-methyl-2-oxo-1H-1,4-benzodiazepin-3-yl]-N′-[3-(5-hydroxy-4-pyron-2-yl)phenyl] urea]
711 nM | CCCN1C(=O)C(NC(=O)Nc2cccc(C)c2)N=C(N2CCN(C)CC2)c2ccc(C)cc21 (racemic) [Example 42, N-[3(R,S)-2,3-Dihydro-8-methyl-5-(4-methylpiperazin-1-yl)-2-oxo-1-propyl-1H-1,4-benzodiazepin-3-yl]-N′-[3-methylphenyl] urea]
3450 nM | CN1CCN(C2=NC(NC(=O)Nc3ccccc3)C(=O)N(C)c3ccccc32)CC1 (racemic) [Example 31, N-[3(R,S)-2,3-Dihydro-1-methyl-2-oxo-5-(4-methylpiperazin-1-yl)-1H-1,4-benzodiazepin-3-yl]-N′-phenyl urea]
